In ChEMBL document CHEMBL1201862, “PubChem BioAssay data set” (2004):
Calls of active or inactive are those of the source.

Columns and labels:
[1] = biological target: Beta-galactosidase (Escherichia coli, UniProt Q8VNN2); assay: PubChem AID 485352; type: functional
[2] = biological target: T1, Type-1 angiotensin II receptor (Homo sapiens, UniProt P30556); assay: antagonism of angiotensin II type 1 receptor – cell-based, uHTS hits, selectivity assay for APJ receptor antagonist project, dose response (AID 463214); type: functional;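 further: antagonist potency against angiotensin II stimulated AT1 response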
T1 sequence (P30556 whole entry): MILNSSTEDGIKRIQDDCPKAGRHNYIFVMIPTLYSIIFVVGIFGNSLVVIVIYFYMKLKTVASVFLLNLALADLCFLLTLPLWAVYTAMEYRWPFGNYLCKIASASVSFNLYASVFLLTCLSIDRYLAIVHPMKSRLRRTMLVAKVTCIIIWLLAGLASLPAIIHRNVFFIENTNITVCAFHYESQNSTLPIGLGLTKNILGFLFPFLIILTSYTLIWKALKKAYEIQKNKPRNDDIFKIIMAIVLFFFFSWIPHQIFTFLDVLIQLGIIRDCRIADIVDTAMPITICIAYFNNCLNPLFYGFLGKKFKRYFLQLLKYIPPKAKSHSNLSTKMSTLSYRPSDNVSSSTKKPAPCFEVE

[3] = biological target: Induced myeloid leukemia cell differentiation protein Mcl-1 (Homo sapiens, UniProt Q07820); type: functional
Induced myeloid leukemia cell differentiation protein Mcl-1, sequence (Q07820 whole entry): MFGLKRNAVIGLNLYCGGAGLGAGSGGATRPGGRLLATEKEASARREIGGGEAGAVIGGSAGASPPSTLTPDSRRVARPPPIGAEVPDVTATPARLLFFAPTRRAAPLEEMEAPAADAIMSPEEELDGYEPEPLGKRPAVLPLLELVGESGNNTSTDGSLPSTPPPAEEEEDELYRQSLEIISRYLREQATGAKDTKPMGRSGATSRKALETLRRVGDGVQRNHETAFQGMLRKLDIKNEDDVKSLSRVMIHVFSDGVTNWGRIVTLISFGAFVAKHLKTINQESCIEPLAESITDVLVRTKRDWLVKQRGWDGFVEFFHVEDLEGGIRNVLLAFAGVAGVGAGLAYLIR

[4] = biological target: T2, Fatty acid synthase (Homo sapiens, UniProt P49327); assay: inhibition of human FAS-TE enzyme activity – biochemical, endpoint fluorescence intensity, uHTS hits, dose response (AID 624327); type: functional;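 further: fluorescence from hydrolysis of an O-methyl fluorescein acyl ester substrate by the enzyme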
T2 sequence (P49327 whole entry): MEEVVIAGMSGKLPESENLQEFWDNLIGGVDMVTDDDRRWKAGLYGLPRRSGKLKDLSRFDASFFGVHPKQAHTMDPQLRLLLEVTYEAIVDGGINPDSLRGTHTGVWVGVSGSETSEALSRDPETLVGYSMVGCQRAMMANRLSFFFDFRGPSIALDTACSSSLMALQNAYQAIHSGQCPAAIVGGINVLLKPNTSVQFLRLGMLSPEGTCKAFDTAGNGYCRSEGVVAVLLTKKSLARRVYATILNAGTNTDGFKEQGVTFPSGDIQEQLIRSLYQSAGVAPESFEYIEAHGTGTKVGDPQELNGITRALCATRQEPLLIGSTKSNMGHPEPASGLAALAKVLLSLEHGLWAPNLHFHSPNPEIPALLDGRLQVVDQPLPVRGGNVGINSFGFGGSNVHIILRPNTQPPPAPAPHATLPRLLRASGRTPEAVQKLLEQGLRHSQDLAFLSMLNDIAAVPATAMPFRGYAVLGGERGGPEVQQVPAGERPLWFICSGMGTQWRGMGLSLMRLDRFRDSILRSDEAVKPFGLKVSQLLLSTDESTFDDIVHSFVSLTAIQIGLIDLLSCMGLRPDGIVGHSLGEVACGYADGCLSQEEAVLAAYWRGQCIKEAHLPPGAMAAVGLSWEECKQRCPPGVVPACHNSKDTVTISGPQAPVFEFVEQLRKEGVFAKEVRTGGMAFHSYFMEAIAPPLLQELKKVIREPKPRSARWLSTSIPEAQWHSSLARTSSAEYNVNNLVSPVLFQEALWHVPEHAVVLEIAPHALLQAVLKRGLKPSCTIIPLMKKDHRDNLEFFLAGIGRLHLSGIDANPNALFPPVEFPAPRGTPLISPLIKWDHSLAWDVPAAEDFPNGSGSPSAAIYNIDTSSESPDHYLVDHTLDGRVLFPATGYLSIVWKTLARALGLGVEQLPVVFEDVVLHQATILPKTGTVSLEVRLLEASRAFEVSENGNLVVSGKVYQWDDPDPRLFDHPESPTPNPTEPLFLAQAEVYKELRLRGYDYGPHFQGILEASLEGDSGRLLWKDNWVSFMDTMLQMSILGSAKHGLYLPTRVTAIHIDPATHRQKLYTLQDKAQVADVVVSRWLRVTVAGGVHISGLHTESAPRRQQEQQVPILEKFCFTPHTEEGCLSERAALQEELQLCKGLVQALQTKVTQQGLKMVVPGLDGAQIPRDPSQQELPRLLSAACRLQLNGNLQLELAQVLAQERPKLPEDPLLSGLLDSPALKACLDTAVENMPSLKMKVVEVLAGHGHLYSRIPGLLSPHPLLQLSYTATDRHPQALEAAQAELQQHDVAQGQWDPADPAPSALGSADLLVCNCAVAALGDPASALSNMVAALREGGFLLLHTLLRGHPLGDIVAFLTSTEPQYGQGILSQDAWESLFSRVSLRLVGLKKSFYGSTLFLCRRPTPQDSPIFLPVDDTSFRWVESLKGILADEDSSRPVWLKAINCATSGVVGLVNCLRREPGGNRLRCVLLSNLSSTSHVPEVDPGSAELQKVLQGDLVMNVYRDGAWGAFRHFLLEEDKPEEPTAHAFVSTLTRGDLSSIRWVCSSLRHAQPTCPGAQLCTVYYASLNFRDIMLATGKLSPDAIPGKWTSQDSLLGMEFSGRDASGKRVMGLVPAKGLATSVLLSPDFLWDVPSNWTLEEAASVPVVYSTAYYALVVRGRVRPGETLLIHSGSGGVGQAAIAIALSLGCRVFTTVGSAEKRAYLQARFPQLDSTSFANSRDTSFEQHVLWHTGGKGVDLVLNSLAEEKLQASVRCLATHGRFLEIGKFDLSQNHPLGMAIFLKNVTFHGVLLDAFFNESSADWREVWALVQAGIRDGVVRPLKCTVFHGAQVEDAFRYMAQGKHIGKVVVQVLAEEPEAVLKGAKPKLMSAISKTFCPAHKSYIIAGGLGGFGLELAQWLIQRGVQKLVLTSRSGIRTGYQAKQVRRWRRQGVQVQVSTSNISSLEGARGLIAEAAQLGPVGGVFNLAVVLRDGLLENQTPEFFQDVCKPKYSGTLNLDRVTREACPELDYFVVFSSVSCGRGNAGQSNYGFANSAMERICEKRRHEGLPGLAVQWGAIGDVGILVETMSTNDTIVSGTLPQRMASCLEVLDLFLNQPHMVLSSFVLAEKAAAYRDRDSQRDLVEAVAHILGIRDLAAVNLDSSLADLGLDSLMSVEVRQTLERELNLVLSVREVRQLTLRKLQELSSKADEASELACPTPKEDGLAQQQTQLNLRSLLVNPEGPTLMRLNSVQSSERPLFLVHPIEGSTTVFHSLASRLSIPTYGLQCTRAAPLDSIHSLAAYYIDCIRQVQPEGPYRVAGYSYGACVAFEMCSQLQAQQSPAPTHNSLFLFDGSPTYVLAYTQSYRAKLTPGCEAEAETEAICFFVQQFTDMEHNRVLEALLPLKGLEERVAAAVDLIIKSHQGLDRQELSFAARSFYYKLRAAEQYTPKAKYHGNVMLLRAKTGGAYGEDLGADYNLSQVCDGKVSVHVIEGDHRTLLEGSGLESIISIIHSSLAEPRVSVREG

[5] = biological target: Glucose-6-phosphate 1-dehydrogenase (Homo sapiens, UniProt P11413); assay: inhibition of Homo sapiens G6PD, dose series – biochemical, fluorescence, selectivity assay for P. falciparum G6PD inhibitor project, dose response (AID 504792); type: functional
Glucose-6-phosphate 1-dehydrogenase, sequence (P11413 whole entry): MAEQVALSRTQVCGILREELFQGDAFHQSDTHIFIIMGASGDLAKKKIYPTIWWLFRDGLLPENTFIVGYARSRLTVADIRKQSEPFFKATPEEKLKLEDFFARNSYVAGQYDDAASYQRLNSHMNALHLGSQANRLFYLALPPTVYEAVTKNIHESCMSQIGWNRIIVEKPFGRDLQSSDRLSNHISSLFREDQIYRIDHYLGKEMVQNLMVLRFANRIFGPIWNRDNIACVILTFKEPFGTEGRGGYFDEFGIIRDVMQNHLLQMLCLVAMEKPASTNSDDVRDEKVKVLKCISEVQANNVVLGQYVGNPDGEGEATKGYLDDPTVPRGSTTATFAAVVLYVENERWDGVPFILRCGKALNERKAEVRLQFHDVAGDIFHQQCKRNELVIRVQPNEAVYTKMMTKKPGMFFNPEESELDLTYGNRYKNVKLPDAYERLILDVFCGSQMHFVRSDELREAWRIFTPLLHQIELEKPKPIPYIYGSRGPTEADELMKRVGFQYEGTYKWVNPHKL

[6] = biological target: T3, Replicative DNA helicase DnaB (Mycobacterium tuberculosis, UniProt P9WMR3); assay: DnaB intein splicing inhibitors, dose response, biochemical, cell-free fluorescence (AID 449749); type: functional
T3 sequence (P9WMR3 whole entry): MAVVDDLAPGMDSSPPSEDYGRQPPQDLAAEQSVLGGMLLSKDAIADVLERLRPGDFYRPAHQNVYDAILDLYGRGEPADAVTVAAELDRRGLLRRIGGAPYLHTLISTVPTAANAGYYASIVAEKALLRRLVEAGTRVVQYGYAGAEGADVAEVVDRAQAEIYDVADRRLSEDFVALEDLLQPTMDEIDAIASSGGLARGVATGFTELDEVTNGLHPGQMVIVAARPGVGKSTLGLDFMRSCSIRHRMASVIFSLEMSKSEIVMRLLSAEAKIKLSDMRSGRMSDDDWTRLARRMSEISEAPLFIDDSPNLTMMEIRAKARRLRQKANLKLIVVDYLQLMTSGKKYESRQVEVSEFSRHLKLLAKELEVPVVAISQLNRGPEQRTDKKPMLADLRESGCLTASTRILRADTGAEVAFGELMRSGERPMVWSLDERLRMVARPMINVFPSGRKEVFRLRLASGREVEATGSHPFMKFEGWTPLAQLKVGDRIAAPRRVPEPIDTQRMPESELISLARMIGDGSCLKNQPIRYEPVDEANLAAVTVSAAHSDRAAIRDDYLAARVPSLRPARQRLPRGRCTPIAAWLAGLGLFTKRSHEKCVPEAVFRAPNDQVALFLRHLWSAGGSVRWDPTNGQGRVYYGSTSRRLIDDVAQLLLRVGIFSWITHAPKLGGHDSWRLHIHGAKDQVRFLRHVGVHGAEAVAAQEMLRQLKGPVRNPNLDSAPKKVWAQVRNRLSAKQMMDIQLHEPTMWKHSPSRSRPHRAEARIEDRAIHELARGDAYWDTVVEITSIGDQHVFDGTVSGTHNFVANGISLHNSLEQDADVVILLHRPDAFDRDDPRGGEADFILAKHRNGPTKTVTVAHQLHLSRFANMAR

[7] = biological target: T4, Protein RecA (Mycobacterium tuberculosis, UniProt P9WHJ3); assay: Fluorescence Cell-Free Homogeneous Dose Retest to Identify Inhibitors of RecA-Intein Splicing Activity. [Related pubchem assays (depositor defined):AID2097, AID2223, AID489010, AID492950]; type: functional
T4 sequence (P9WHJ3 whole entry): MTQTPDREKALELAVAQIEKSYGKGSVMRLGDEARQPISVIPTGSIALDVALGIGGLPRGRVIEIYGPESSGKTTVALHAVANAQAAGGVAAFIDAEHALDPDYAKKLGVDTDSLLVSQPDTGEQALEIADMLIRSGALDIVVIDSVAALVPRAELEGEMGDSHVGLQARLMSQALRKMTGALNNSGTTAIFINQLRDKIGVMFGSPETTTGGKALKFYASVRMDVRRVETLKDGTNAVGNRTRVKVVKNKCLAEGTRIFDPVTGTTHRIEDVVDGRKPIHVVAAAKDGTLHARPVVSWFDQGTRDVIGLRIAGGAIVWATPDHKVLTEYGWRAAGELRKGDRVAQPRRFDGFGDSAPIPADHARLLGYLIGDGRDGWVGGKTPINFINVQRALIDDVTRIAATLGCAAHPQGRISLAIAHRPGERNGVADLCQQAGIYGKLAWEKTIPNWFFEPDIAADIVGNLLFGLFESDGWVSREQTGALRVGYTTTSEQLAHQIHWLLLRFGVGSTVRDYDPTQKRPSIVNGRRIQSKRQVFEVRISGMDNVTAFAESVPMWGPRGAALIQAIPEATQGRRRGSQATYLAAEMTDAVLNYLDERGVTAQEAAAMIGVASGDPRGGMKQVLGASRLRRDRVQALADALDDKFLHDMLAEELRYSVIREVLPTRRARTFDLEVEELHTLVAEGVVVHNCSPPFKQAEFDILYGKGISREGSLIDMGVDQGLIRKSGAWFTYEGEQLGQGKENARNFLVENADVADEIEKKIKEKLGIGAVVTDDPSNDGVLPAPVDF

[8] = biological target: T2, Fatty acid synthase; assay: inhibition of human FAS-TE enzyme activity – biochemical, kinetic fluorescence intensity, dose response (AID 624326); type: functional;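 further: rate of fluorescence rise from hydrolysis of a fluorogenic O-methyl fluorescein ester substrate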
[9] = biological target: T5, Calpain-2 catalytic subunit (Sus scrofa, UniProt P43367); assay: m-calpain protease blockers, concentration series – biochemical, fluorogenic peptide substrate, dose response (AID 1420); type: functional
T5 sequence (P43367 whole entry): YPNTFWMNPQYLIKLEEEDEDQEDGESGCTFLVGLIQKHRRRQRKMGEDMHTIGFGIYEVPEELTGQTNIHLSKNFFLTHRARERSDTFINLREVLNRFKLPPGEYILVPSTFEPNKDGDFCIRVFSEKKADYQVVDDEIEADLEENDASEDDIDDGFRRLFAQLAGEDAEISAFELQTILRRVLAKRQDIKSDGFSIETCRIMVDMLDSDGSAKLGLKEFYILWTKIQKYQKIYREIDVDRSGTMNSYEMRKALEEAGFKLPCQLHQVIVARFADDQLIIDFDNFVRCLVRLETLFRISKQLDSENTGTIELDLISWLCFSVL

[10] = test system: Vero; assay: viability of Vero cells under compound – cytotoxicity control for flavivirus capping enzyme inhibitors (AID 588742); type: functional; details: Chlorocebus sabaeus
[11] = biological target: T6, DNA repair and recombination protein RAD54-like (Homo sapiens, UniProt Q92698); assay: RAD54 Holliday junction migration blockers – biochemical, fluorescence, cherry-picked samples, dose series, confirmation (AID 651657); type: functional
T6 sequence (Q92698 whole entry): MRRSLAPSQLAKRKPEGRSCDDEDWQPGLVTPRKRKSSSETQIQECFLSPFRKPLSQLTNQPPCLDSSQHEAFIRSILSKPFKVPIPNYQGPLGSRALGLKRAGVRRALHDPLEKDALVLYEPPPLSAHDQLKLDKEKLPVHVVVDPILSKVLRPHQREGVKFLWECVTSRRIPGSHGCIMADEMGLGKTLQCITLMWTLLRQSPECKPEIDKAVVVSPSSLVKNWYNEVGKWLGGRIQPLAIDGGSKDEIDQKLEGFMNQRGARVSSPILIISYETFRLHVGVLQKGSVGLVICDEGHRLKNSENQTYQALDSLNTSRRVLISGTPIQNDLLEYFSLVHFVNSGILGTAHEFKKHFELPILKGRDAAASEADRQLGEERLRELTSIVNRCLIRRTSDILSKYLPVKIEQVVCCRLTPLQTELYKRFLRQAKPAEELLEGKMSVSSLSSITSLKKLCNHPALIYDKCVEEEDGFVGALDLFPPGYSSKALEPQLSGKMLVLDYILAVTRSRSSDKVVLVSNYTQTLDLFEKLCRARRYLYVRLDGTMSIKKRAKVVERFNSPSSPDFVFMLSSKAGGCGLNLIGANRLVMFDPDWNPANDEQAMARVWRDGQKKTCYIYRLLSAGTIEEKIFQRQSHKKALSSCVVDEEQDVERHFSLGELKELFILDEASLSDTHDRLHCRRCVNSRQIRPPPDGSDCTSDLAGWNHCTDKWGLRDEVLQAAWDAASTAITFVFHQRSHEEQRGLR

[12] = biological target: T7, RNA-binding protein pos-1 (Caenorhabditis elegans, UniProt G5EF15); assay: disruptors of C. elegans POS-1 RNA interaction – biochemical, fluorescence polarization, dose response (AID 1964);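 further: purified POS-1 fused to maltose binding protein made in E. coli; potency of compounds blocking POS-1 binding to fluorescent RNA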
T7 sequence (G5EF15 whole entry): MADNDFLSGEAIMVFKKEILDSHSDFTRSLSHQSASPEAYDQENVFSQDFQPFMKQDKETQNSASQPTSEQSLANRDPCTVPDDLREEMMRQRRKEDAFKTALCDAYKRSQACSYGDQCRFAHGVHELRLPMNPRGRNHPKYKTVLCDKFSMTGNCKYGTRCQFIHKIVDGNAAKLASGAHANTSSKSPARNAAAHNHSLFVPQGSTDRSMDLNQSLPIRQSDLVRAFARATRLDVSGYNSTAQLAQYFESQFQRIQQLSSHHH

[13] = biological target: T8, Zinc finger protein mex-5 (Caenorhabditis elegans, UniProt Q9XUB2); assay: potency of MEX-5 RNA-binding blockers – biochemical, C. elegans, fluorescence polarization, dose response (AID 1960)
T8 sequence (Q9XUB2 whole entry): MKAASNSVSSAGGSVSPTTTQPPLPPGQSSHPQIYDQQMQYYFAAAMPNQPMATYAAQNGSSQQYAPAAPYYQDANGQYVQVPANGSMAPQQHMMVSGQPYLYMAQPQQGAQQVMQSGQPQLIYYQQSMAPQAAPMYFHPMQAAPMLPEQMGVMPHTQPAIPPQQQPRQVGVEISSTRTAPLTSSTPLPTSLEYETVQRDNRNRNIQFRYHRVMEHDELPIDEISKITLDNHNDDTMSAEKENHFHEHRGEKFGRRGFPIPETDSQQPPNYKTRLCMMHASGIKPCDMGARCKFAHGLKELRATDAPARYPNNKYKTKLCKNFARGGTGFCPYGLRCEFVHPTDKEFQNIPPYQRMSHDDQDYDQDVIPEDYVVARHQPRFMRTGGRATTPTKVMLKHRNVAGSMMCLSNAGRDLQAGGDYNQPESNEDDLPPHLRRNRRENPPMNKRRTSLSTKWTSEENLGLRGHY

[14] = biological target: Nonstructural protein 1 (Influenza A virus, UniProt Q194T2); type: functional, Influenza A virus (A/California/07/2009(H1N1))
Nonstructural protein 1, sequence (Q194T2 whole entry): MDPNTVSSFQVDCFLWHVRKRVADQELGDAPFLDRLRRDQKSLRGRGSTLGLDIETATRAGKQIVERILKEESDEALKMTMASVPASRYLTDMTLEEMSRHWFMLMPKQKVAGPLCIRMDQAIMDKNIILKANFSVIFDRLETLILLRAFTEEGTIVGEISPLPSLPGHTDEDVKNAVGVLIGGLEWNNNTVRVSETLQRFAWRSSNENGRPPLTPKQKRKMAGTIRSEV

[15] = biological target: Genome polyprotein (dengue virus type 2, UniProt P29990); assay: flavivirus cap methylation enzyme inhibition – biochemical, confirmation dose response, primary screen (AID 588689); type: functional
[16] = biological target: Large T antigen (Simian virus 40, UniProt P03070); type: functional, Betapolyomavirus macacae;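 further: Confirmatory-stage PubChem screen for compounds that inhibit SV40 T antigen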
[17] = cells; type: functional
[18] = Vero E6 cell cytotoxicity, dose response, cytotoxicity control for non-replicating M. tuberculosis project, secondary assay (AID 492998); type: functional, VeroE6; details: Vero C1008
[19] = blockers of HIV-1 ZM109 envelope-driven cell-cell fusion – HeLa effector, CEM target cells, luciferase, cherry-pick, dose response (AID 652058); type: functional, cell-based;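 further: luciferase signal from HIV-1 Env mediated cell-cell fusion of effector and target cells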

Beta-galactosidase, sequence (Q8VNN2 whole entry): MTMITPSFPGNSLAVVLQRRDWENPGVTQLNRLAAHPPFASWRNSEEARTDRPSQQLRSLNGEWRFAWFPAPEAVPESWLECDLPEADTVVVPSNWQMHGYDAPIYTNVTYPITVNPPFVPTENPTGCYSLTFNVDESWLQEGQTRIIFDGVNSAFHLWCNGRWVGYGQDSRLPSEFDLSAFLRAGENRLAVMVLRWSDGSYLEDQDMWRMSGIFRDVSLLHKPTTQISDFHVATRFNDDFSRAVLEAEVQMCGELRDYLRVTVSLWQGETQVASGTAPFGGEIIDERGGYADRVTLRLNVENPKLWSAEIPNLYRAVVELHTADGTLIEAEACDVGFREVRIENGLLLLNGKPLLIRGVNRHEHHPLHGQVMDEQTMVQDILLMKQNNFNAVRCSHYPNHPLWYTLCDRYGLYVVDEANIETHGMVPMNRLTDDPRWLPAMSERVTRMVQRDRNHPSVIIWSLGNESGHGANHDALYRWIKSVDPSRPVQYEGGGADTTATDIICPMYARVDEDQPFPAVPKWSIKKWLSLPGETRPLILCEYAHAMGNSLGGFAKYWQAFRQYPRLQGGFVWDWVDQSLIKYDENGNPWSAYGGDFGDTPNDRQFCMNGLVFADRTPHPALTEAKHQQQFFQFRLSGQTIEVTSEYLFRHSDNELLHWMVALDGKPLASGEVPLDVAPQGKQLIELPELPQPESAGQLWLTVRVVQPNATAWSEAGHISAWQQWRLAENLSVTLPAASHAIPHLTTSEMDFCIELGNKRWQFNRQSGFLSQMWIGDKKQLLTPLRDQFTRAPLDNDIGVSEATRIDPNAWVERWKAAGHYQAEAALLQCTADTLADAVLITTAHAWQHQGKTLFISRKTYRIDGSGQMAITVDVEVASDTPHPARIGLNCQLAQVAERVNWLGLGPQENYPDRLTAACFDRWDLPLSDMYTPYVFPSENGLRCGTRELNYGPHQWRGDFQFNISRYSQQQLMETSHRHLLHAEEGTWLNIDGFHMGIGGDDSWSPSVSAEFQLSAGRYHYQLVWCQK

Cc1ccc(C(=O)CNc2cc(C)ccc2C)cc1
EC50 [1]: > 40 µM (inactive) | IC50 [2]: 9.85 µM (active)

Cc1nnc(Sc2cc(NCCO)c([N+](=O)[O-])c3nonc23)s1
IC50 [3]: 6.12 µM (active) | IC50 [4]: 6.34 µM (active) | IC50 [5]: > 80 µM (inactive) | AC50 [6]: 19.8 µM (inconclusive) | EC50 [7]: 12.4 µM (active) | IC50 [8]: 5.35 µM (active) | IC50 [9]: > 50 µM (not active)

COc1ccc(OCc2nnc3n2N=C(c2ccccc2)C(CC(=O)O)S3)cc1 (configuration not stated)
IC50 [5]: > 80 µM (inactive)

C=CCNC1=NN=C(c2cc(C)n(CC=C)c2C)CS1
CC50 [10]: > 40 µM (active)

CCN1CCc2c(sc(NC(=O)c3ccc(C(=O)c4ccccc4)cc3)c2C(N)=O)C1
AC50 [11]: 36.6 µM (active)

COc1cc([N+](=O)[O-])ccc1-c1ccc(/C=C2\C(=O)ON=C2c2ccccc2)o1
CC50 [10]: 22.1 µM (active)

CCN(CC)C(=O)c1ccc2c(c1)C1C(Cl)C(Sc3ccccc3[N+](=O)[O-])CC1C(C(=O)O)N2 (configuration not stated)
EC50 [12]: > 300 µM (inconclusive) | EC50 [13]: 15.4 µM (inconclusive) | AC50 [6]: 4.63 µM (active) | EC50 [7]: 17 µM (active) | IC50 [14]: 17.7 µM (active) | IC50 [15]: 59.1 µM (active) | IC50 [16]: 35.4 µM (active)

Cc1c(C(=O)N(Cc2ccccc2Cl)C2CCS(=O)(=O)C2)oc2ccccc12 (configuration not stated)
IC50 [5]: 40.3 µM (inactive)

Cc1cc(C)nc(NNS(=O)(=O)c2ccc(F)c(Cl)c2)n1
EC50 [1]: > 40 µM (inactive) | IC50 [2]: 23.9 µM (not active)

CCOCCCN=C(S)Nc1ccc2nc(N3CCCC3)cc(C)c2c1
AC50 [11]: 100 µM (inactive)

COc1cc(N)c2ncccc2c1Cl
IC50 [5]: 69.4 µM (inactive)

Cc1ccc(C(=O)Nc2nnc(-c3ccncc3)o2)cc1
IC50 [17]: 8.2 µM (active) | CC50 [18]: > 20 µM (active)

CCN(CC)CCCNC(=O)C1CCN(c2ncnc3c2sc2cccc(F)c23)CC1
AC50 [11]: 52 µM (active)

O=C(C[C@@H]1C[C@@H]2c3cc(NC(=O)C4CCOCC4)ccc3O[C@@H]2[C@H](CO)O1)NCCc1ccccc1
AC50 [19]: 37.3 µM (active)

CCOc1ccccc1N1CCN(C2=C(NS(=O)(=O)c3cccs3)C(=O)c3ccccc3C2=O)CC1
CC50 [10]: > 40 µM (active)

O=C(CCNc1cccc(Cl)c1)c1ccco1
IC50 [17]: 18 µM (active) | CC50 [18]: 18.8 µM (active)
